In ChEMBL document CHEMBL5365550, “Targeting the Inhibition of B-Cell Lymphoma 2 Protein for the Treatment of Cancer” (ACS Med Chem Lett, 2023):

Experiments:
[1] = system: RS4-11; test: Cytotoxicity against human RS4-11 cells assessed as reduction in cell viability by CellTiter-Glo assay; assay type: functional, cell-based
[2] = system: MOLT-4; test: Cytotoxicity against human MOLT-4 cells assessed as reduction in cell viability by CellTiter-Glo assay; assay type: functional, cell-based
[3] = target: Bcl-2-like protein 1 (Homo sapiens, UniProt Q07817); test: Inhibition of human Bcl-xL expressed in Escherichia coli BL21(DE3) T1R cells preincubated under shaking condition for 1 min and measured after 3 hrs by TR-FRET assay
Bcl-2-like protein 1, sequence (Q07817 whole entry): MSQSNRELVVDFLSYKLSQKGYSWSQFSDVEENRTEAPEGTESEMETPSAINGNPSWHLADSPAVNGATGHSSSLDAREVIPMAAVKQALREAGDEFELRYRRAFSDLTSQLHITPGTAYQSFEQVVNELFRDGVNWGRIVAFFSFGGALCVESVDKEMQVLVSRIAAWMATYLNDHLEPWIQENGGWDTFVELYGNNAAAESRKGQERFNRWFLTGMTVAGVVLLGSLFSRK

[4] = target: Apoptosis regulator Bcl-2 (Homo sapiens, UniProt P10415); test: Inhibition of human Bcl-2 expressed in Escherichia coli BL21(DE3) T1R cells preincubated under shaking condition for 1 min and measured after 3 hrs by TR-FRET assay
Apoptosis regulator Bcl-2, sequence (P10415 whole entry): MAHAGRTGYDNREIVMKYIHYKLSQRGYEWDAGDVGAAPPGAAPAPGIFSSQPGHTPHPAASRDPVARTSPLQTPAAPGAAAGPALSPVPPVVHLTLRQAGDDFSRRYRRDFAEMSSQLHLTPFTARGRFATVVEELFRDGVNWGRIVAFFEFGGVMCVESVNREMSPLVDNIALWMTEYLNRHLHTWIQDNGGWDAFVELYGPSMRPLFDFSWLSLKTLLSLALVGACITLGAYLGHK

Row | SMILES | EC50 [1] | EC50 [2] | Ki [3] | Ki [4]
1 | COC1(CNc2ccc(S(=O)(=O)NC(=O)c3ccc(N4CCN5CC6=C(c7ccc(Cl)cc7)CC(C)(C)C[C@H]6OCCCOC[C@@H]5C4)cc3N3CCCOc4nc5[nH]ccc5cc43)cc2[N+](=O)[O-])CCOCC1 | 4.38 nM | > 10000 nM | 40.3 nM | 2.09 nM
2 | COCC1(F)CC(CNc2ccc(S(=O)(=O)NC(=O)c3ccc(N4CCN5CC6=C(c7ccc(Cl)cc7)CC(C)(C)C[C@H]6OCCCOC[C@@H]5C4)cc3N3CCCOc4nc5[nH]ccc5cc43)cc2[N+](=O)[O-])C1 (stereo partly drawn) | 10.9 nM | > 10000 nM | 25.8 nM | 0.28 nM
3 | CC1(C)CC(c2ccc(Cl)cc2)=C2CN3CCN(c4ccc(C(=O)NS(=O)(=O)c5ccc(NC[C@H]6CC[C@](C)(O)CO6)c([N+](=O)[O-])c5)c(N5CCCOc6nc7[nH]ccc7cc65)c4)C[C@H]3COCCCO[C@@H]2C1 | 0.651 nM | 1220 nM | 9.3 nM | 0.049 nM
4 | CC1(C)CC(c2ccc(Cl)cc2)=C2CN3CCN(c4ccc(C(=O)NS(=O)(=O)c5ccc(NC[C@H]6CC[C@H](O)CO6)c([N+](=O)[O-])c5)c(N5CCCOc6nc7[nH]ccc7cc65)c4)C[C@H]3COCCCO[C@@H]2C1 | 0.966 nM | 823 nM |  | 
5 | CC1(C)CC(c2ccc(Cl)cc2)=C2CN3CCN(c4ccc(C(=O)NS(=O)(=O)c5ccc(NC[C@H]6COCCO6)c([N+](=O)[O-])c5)c(N5CCCOc6nc7[nH]ccc7cc65)c4)C[C@H]3COCCCO[C@@H]2C1 | 1.36 nM | 1410 nM | 5.76 nM | 0.034 nM
6 | CC1(C)CC(c2ccc(Cl)cc2)=C2CN3CCN(c4ccc(C(=O)NS(=O)(=O)c5ccc(NCC6(O)CCOCC6)c([N+](=O)[O-])c5)c(N5CCCOc6nc7[nH]ccc7cc65)c4)C[C@H]3COCCCO[C@@H]2C1 | 1.43 nM | 426 nM | 8.31 nM | 0.223 nM
7 | CC1(C)CC(c2ccc(Cl)cc2)=C2CN3CCN(c4ccc(C(=O)NS(=O)(=O)c5ccc(NC[C@H]6CC[C@@](C)(O)CC6)c([N+](=O)[O-])c5)c(N5CCCOc6nc7[nH]ccc7cc65)c4)C[C@H]3COCCCO[C@@H]2C1 | 1.47 nM | 117 nM | 11.1 nM | 0.061 nM
8 | CO[C@H]1C[C@H](Nc2ccc(S(=O)(=O)NC(=O)c3ccc(N4CCN5CC6=C(c7ccc(Cl)cc7)CC(C)(C)C[C@H]6OCCCOC[C@@H]5C4)cc3N3CCCOc4nc5[nH]ccc5cc43)cc2[N+](=O)[O-])C1 | 4.1 nM | > 10000 nM | 39 nM | 2.58 nM
9 | CC1(C)CC(c2ccc(Cl)cc2)=C2CN3CCN(c4ccc(C(=O)NS(=O)(=O)c5ccc(NC[C@H]6CC[C@](C)(O)CC6)c(Cl)c5)c(N5CCCOc6nc7[nH]ccc7cc65)c4)C[C@H]3COCCCO[C@@H]2C1 | 17.7 nM | > 10000 nM | 29.7 nM | 0.085 nM
10 | CO[C@H]1CC[C@H](CNc2ccc(S(=O)(=O)NC(=O)c3ccc(N4CCN5CC6=C(c7ccc(Cl)cc7)CC(C)(C)C[C@H]6OCCCOC[C@@H]5C4)cc3N3CCCOc4nc5[nH]ccc5cc43)cc2[N+](=O)[O-])OC1 |  | 1700 nM |  | 
11 | CC1(C)CC(c2ccc(Cl)cc2)=C2CN3CCN(c4ccc(C(=O)NS(=O)(=O)c5cnc(OCC6(F)CCOCC6)c(Cl)c5)c(N5CCCOc6nc7[nH]ccc7cc65)c4)C[C@H]3COCCCO[C@@H]2C1 | 5.46 nM | > 10000 nM | > 661 nM | 
